Test results: patent US20230303570A1, “KINASE INHIBITORS AND USES THEREOF” (ABM Therapeutics Corporation, priority 2020, published 2023)
Where two headings read alike, the source gives them in different places.

How the values were obtained:
PAK1 = PAK1 (Homo sapiens, UniProt Q13153); test: In vitro kinase assay, PAK1 (Caliper EZ Reader conversion); type: biochemical; set-up: purchased Carna Biosciences
Procedure: (§1) The effect of the compounds on the activity of SRC and PAK1 kinase were assessed. SRC and PAK1 kinase enzymes were obtained from Carna Biosciences.
(§2) Test compounds were dissolved in 100% DMSO to prepare a 20 mM stock. Compounds were stored in −20° C. and protected from light. A 100×solution of the compounds were prepared, from which 4-fold serial dilutions was made to achieve a total of 6 concentrations. Saracatinib was used as a positive control for the SRC assay, and FRAX597 was used as a positive control for the PAK1 assay. For the positive controls, a 3-fold serial dilution was made to achieve a total of 10 concentrations. 10 μL 1× Kinase buffer was used as the negative control.
(§3) First, 250 nL of the compounds at each dilution were transferred into wells of a 384-well plate. The PAK1 and SRC kinases were diluted to a 2.5×final concentration with 1×Kinase buffer. Then, 10 μL of enzyme mix was added to the 384-well plate, and the enzymes and compounds were pre-incubated at room temperature for 10 minutes. […] Then, 15 μL of substrate mix was added to a 384-well plate and reacted at room temperature for 30 min and 60 min. The reaction was stopped by adding 30 μL of the stop buffer, and the conversion rate was read using a Caliper EZ Reader.
(§4) Percent inhibition is calculated according to the following equation: […]
(§5) wherein “Conversion %_sample” is the conversion percentage value of the sample; “Conversion %_min” is the average conversion percentage value of the negative control; and “Conversion %_max” is the average conversion percentage value of the positive control.
(§6) The dose-response curve was fitted using GraphPad Prism software (version 5, […]), and the IC50 values for each compounds were calculated by log(inhibitor) vs. response using a variable slope program with the following formula:
(§7) Y=Bottom+(Top-Bottom)/(1+10^((Log IC50−X)*HillSlope))

SRC = target: T1, SRC (Homo sapiens, UniProt P12931); test: In vitro kinase assay, SRC (Caliper EZ Reader conversion); type: biochemical
T1 construct: purchased Carna Biosciences
T1 sequence (P12931 whole entry): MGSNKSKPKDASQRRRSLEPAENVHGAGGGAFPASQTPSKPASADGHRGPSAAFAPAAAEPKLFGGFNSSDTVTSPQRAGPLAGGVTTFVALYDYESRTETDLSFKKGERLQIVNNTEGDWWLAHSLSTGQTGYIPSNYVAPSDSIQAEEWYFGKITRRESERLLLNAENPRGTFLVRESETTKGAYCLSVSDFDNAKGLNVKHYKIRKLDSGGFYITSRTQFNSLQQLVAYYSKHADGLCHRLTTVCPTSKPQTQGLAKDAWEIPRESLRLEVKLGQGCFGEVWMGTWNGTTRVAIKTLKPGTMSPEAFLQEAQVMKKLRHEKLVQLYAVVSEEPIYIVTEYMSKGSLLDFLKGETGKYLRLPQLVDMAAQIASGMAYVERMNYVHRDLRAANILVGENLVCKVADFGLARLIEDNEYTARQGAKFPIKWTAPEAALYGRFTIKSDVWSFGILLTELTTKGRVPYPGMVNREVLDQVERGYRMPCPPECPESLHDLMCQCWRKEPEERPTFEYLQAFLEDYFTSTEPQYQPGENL
Procedure: as §1
as §2, with “A 100×solution of the compounds were prepared, from which 4-fold serial dilutions was made to achieve a total of 6 concentrations.” left out
as §3, with “The PAK1 and SRC kinases were diluted to a 2.5×final concentration with 1×Kinase buffer.” left out
as §4, §5, §6, §7

Chain of PAK1 (Q13153 whole entry): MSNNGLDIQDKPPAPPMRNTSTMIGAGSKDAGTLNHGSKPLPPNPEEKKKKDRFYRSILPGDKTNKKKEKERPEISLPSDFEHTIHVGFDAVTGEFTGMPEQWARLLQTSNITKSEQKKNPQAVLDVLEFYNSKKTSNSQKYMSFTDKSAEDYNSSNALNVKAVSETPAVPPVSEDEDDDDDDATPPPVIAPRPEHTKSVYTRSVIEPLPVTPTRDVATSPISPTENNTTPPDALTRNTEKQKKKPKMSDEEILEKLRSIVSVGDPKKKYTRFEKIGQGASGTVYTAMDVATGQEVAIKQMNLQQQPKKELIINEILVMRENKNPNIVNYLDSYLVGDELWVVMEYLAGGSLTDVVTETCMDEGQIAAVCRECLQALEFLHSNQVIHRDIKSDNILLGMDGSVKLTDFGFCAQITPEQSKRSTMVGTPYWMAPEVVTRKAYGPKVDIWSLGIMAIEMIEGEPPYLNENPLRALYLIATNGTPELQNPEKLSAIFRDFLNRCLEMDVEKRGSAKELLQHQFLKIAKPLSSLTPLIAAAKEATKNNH

| IC50 (PAK1) | IC50 (SRC; read-out: SRC IC50) | IC50 (SRC) | SMILES |
| --- | --- | --- | --- |
| > 10 µM | 0.1 to 10 µM |  | Fc1ccccc1Nc1ncc2c(n1)N1CCN=C1C(c1ccc(Cl)cc1Cl)=C2 [Compound 6, 6-(2,4-dichlorophenyl)-N-(2-fluorophenyl)-8,9-dihydroimidazo[1′,2′:1,6]pyrido[2,3-d]pyrimidin-2-amine] |
| > 10 µM | 0.1 to 10 µM |  | COc1nc(N2CCNCC2)ccc1Nc1ncc2c(n1)N1CCCN=C1C(c1ccc(Cl)cc1Cl)=C2 [Compound 70, 6-(2,4-dichlorophenyl)-N-(2-methoxy-6-(piperazin-1-yl)pyridin-3-yl)-9,10-dihydro-8H-pyrido[1,6-a:2,3-d′]dipyrimidin-2-amine] |
| < 0.1 µM | < 0.1 µM |  | Fc1cc(Nc2ncc3c(n2)N2CCN=C2C(c2ccc(Cl)cc2Cl)=C3)ccc1N1CCNCC1 [Compound 1, 6-(2,4-dichlorophenyl)-N-(3-fluoro-4-(piperazin-1-yl)phenyl)-8,9-dihydroimidazo[1′,2′:1,6]pyrido[2,3-d]pyrimidin-2-amine] |
| 0.1 to 10 µM | < 0.1 µM |  | CCN1CCN(c2ccc(Nc3ncc4c(n3)N3CCN=C3C(c3ccc(Cl)cc3Cl)=C4)cc2F)CC1 [Compound 3, 6-(2,4-dichlorophenyl)-N-(4-(4-ethylpiperazin-1-yl)-3-fluorophenyl)-8,9-dihydroimidazo[1′,2′:1,6]pyrido[2,3-d]pyrimidin-2-amine] |
| > 10 µM | 0.1 to 10 µM |  | Clc1ccccc1C1=Cc2cnc(Nc3cccnc3)nc2N2CCN=C12 [Compound 15, 6-(2-chlorophenyl)-N-(pyridin-3-yl)-8,9-dihydroimidazo[1′,2′:1,6]pyrido[2,3-d]pyrimidin-2-amine] |
| > 10 µM | < 0.1 µM |  | Cc1ccc(Nc2ncc3c(n2)N2CCN=C2C(c2ccccc2Cl)=C3)cc1F [Compound 20, 6-(2-chlorophenyl)-N-(3-fluoro-4-methylphenyl)-8,9-dihydroimidazo[1′,2′:1,6]pyrido[2,3-d]pyrimidin-2-amine] |
| > 10 µM | > 10 µM |  | CNc1ncc2c(n1)N1CCCN=C1C(c1ccc(-n3ccnc(C)c3=O)cc1)=C2 [Compound 64, 3-methyl-1-(4-(2-(methylamino)-9,10-dihydro-8H-pyrido[1,6-a:2,3-d′]dipyrimidin-6-yl)phenyl)pyrazin-2(1H)-one] |
| > 10 µM | > 10 µM |  | Fc1ccccc1Nc1ncc2c(n1)N1CCCN=C1C(c1cccc3[nH]ccc13)=C2 [Compound 57, N-(2-fluorophenyl)-6-(1H-indol-4-yl)-9,10-dihydro-8H-pyrido[1,6-a:2,3-d′]dipyrimidin-2-amine] |
| > 10 µM | < 0.1 µM |  | CSc1cccc(Nc2ncc3c(n2)N2CCN=C2C(c2ccccc2Cl)=C3)c1 [Compound 18, 6-(2-chlorophenyl)-N-(3-(methylthio)phenyl)-8,9-dihydroimidazo[1′,2′:1,6]pyrido[2,3-d]pyrimidin-2-amine] |
| > 10 µM | 0.1 to 10 µM |  | C1=C(c2ccccn2)C2=NCCN2c2nc(Nc3ccncc3)ncc21 [Compound 44, 6-(pyridin-2-yl)-N-(pyridin-4-yl)-8,9-dihydroimidazo[1′,2′:1,6]pyrido[2,3-d]pyrimidin-2-amine] |
| > 10 µM | < 0.1 µM |  | Clc1cccc(Cl)c1C1=Cc2cnc(Nc3ccncc3)nc2N2CCN=C12 [Compound 52, 6-(2,6-dichlorophenyl)-N-(pyridin-4-yl)-8,9-dihydroimidazo[1′,2′:1,6]pyrido[2,3-d]pyrimidin-2-amine] |
| > 10 µM | > 10 µM |  | COc1nc(N2CCNCC2)ccc1Nc1ncc2c(n1)N1CCN=C1C(C#Cc1cccnc1)=C2 [Compound 40, N-(2-methoxy-6-(piperazin-1-yl)pyridin-3-yl)-6-(pyridin-3-ylethynyl)-8,9-dihydroimidazo[1′,2′:1,6]pyrido[2,3-d]pyrimidin-2-amine] |
| > 10 µM |  | < 0.1 µM | Fc1cc(N2CCNCC2)ccc1Nc1ncc2c(n1)N1CCN=C1C(c1ccc(Cl)cc1Cl)=C2 [Compound 7, 6-(2,4-dichlorophenyl)-N-(2-fluoro-4-(piperazin-1-yl)phenyl)-8,9-dihydroimidazo[1′,2′:1,6]pyrido[2,3-d]pyrimidin-2-amine] |
| > 10 µM | > 10 µM |  | Cn1nccc1Nc1ncc2c(n1)N1CCN=C1C(c1ccccc1Cl)=C2 [Compound 14, 6-(2-chlorophenyl)-N-(1-methyl-1H-pyrazol-5-yl)-8,9-dihydroimidazo[1′,2′:1,6]pyrido[2,3-d]pyrimidin-2-amine] |
| > 10 µM | 0.1 to 10 µM |  | Clc1cccc(Cl)c1C1=Cc2cnc(NCCC3CCNCC3)nc2N2CCN=C12 [Compound 49, 6-(2,6-dichlorophenyl)-N-(2-(piperidin-4-yl)ethyl)-8,9-dihydroimidazo[1′,2′:1,6]pyrido[2,3-d]pyrimidin-2-amine] |
| > 10 µM | > 10 µM |  | C1=C(c2ccncc2)C2=NCCN2c2nc(Nc3ccncc3)ncc21 [Compound 45, N,6-di(pyridin-4-yl)-8,9-dihydroimidazo[1′,2′:1,6]pyrido[2,3-d]pyrimidin-2-amine] |
| 0.1 to 10 µM | < 0.1 µM |  | Fc1cc(N2CCNCC2)ccc1Nc1ncc2c(n1)N1CCN=C1C(c1ccccc1Cl)=C2 [Compound 12, 6-(2-chlorophenyl)-N-(2-fluoro-4-(piperazin-1-yl)phenyl)-8,9-dihydroimidazo[1′,2′:1,6]pyrido[2,3-d]pyrimidin-2-amine] |
| > 10 µM | 0.1 to 10 µM |  | C1=C(c2ccccc2)C2=NCCN2c2nc(Nc3ccncc3)ncc21 [Compound 43, 6-phenyl-N-(pyridin-4-yl)-8,9-dihydroimidazo[1′,2′:1,6]pyrido[2,3-d]pyrimidin-2-amine] |
| 0.1 to 10 µM | > 10 µM |  | CCNc1ncc2c(n1)N1CCN=C1C(c1ccc(-n3ccnc(C)c3=O)cc1Cl)=C2 [Compound 24, 1-(3-chloro-4-(2-(ethylamino)-8,9-dihydroimidazo[1′,2′:1,6]pyrido[2,3-d]pyrimidin-6-yl)phenyl)-3-methylpyrazin-2(1H)-one] |
| > 10 µM | < 0.1 µM |  | Cc1ccc(NC(=O)c2cccc(C(F)(F)F)c2)cc1C1=Cc2cnc(N)nc2N2CCCN=C12 [Compound 75, N-(3-(2-amino-9,10-dihydro-8H-pyrido[1,6-a:2,3-d′]dipyrimidin-6-yl)-4-methylphenyl)-3-(trifluoromethyl)benzamide] |
| > 10 µM | 0.1 to 10 µM |  | COc1nc(N2CCNCC2)ccc1Nc1ncc2c(n1)N1CCN=C1C(c1ccc(Cl)cc1)=C2 [Compound 36, 6-(4-chlorophenyl)-N-(2-methoxy-6-(piperazin-1-yl)pyridin-3-yl)-8,9-dihydroimidazo[1′,2′:1,6]pyrido[2,3-d]pyrimidin-2-amine] |
| > 10 µM | > 10 µM |  | Clc1cccc(Cl)c1C1=Cc2cnc(N3CCNCC3)nc2N2CCN=C12 [Compound 50, 6-(2,6-dichlorophenyl)-2-(piperazin-1-yl)-8,9-dihydroimidazo[1′,2′:1,6]pyrido[2,3-d]pyrimidine] |
| 0.1 to 10 µM | > 10 µM |  | CNc1ncc2c(n1)N1CCN=C1C(c1ccc(-c3cncc(C)n3)cc1Cl)=C2 [Compound 25, 6-(2-chloro-4-(6-methylpyrazin-2-yl)phenyl)-N-methyl-8,9-dihydroimidazo[1′,2′:1,6]pyrido[2,3-d]pyrimidin-2-amine] |
| > 10 µM | > 10 µM |  | Clc1ccccc1C1=Cc2cnc(NC3COC3)nc2N2CCN=C12 [Compound 21, 6-(2-chlorophenyl)-N-(oxetan-3-yl)-8,9-dihydroimidazo[1′,2′:1,6]pyrido[2,3-d]pyrimidin-2-amine] |
| > 10 µM | 0.1 to 10 µM |  | Clc1ccccc1C1=Cc2cnc(Nc3ccncc3)nc2N2CCN=C12 [Compound 16, 6-(2-chlorophenyl)-N-(pyridin-4-yl)-8,9-dihydroimidazo[1′,2′:1,6]pyrido[2,3-d]pyrimidin-2-amine] |
| > 10 µM | 0.1 to 10 µM |  | COc1ccccc1C1=Cc2cnc(Nc3ccc(N4CCNCC4)cc3F)nc2N2CCN=C12 [Compound 31, N-(2-fluoro-4-(piperazin-1-yl)phenyl)-6-(2-methoxyphenyl)-8,9-dihydroimidazo[1′,2′:1,6]pyrido[2,3-d]pyrimidin-2-amine] |
